Reference: BigSolDB 2.1

O=C1C=CC(=O)N1c1ccccc1Br
solubility (mole fraction)
Conditions	278.15 K	283.15 K	288.15 K	293.15 K	298.15 K	303.15 K	308.15 K	313.15 K	318.15 K	323.15 K
in DMF	0.141	0.163	0.189	0.219	0.253	0.284	0.318	0.363	0.411	0.473
in DMSO	–	–	–	0.156	0.177	0.21	0.238	0.288	0.327	0.387
in NMP	0.117	0.131	0.154	0.179	0.212	0.245	0.284	0.324	0.372	0.424
in acetone	0.0947	0.108	0.125	0.144	0.164	0.19	0.223	0.263	0.306	0.356
in acetonitrile	0.0291	0.0347	0.0422	0.0521	0.0621	0.0723	0.0857	0.103	0.121	0.139
in cyclohexane	0.00188	0.00224	0.00275	0.00344	0.00403	0.00487	0.00597	0.00744	0.00927	0.0117
in ethanol	0.0113	0.0134	0.0163	0.0204	0.0245	0.0287	0.0341	0.0411	0.0481	0.0556
in ethylene glycol	0.00377	0.00451	0.0055	0.00661	0.00819	0.00983	0.0115	0.0134	0.016	0.0184
in isobutanol	0.00649	0.00819	0.00989	0.0117	0.0141	0.0173	0.0204	0.0234	0.0276	0.0328
in isopropanol	0.00861	0.0104	0.0126	0.0157	0.019	0.0221	0.0261	0.0317	0.0375	0.0429
in methanol	0.0134	0.0162	0.0199	0.0249	0.03	0.0356	0.0421	0.0514	0.0604	0.0702
in n-butanol	0.00586	0.00717	0.00848	0.0106	0.0127	0.0147	0.0172	0.021	0.0247	0.0284
in n-propanol	0.00717	0.00866	0.0106	0.0132	0.016	0.0187	0.0225	0.0271	0.0323	0.0372
in water	0.000175	0.000217	0.000277	0.000348	0.000443	0.000543	0.000684	0.000812	0.000979	0.00119
